Measurements as given in ChEMBL document CHEMBL1149545, “Thyroid receptor ligands. Part 8: Thyromimetics derived from N-acylated-alpha-amino acid derivatives displaying modulated pharmacological selectivity compared with KB-141” (Bioorg Med Chem Lett, 2007).

Tests used:
Homo sapiens = organism: Homo sapiens; assay: Selectivity ratio of IC50 for thyroid hormone receptor alpha-1 to IC50 for thyroid hormone receptor beta-1
cells [1] = details: Homo sapiens, CHO-K1
Description: (§1) Activity against TRAF-alpha-1 expressed in CHOK1 cells by alkaline phosphatase reporter gene assay

cells [2] = details: Homo sapiens, CHO-K1; remark: listed apart in the source
Description: (§2) Activity against TRAFbeta expressed in CHOK1 cells by alkaline phosphatse reporter gene assay

[3] = biological target: T1, Thyroid hormone receptor alpha (Homo sapiens, UniProt P10827); assay: biochemical
T1 sequence (P10827 whole entry): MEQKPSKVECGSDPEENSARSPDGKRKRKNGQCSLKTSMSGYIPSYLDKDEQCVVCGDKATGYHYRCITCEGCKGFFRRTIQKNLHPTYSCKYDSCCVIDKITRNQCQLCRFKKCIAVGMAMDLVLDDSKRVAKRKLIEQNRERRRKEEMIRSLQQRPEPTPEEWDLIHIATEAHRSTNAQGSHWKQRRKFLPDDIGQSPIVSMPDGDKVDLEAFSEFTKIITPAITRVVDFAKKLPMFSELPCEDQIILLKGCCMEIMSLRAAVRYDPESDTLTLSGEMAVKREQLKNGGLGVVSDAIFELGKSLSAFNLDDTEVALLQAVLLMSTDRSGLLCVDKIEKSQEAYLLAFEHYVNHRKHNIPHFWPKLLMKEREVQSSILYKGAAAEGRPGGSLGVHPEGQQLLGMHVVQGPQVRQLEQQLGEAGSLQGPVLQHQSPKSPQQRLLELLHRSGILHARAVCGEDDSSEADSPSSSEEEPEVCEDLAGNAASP
Description: Binding affinity at human thyroid hormone receptor alpha 1 expressed in CHOK1 cells

[4] = biological target: T2, Thyroid hormone receptor beta (Homo sapiens, UniProt P10828); assay: biochemical
T2 sequence (P10828 whole entry): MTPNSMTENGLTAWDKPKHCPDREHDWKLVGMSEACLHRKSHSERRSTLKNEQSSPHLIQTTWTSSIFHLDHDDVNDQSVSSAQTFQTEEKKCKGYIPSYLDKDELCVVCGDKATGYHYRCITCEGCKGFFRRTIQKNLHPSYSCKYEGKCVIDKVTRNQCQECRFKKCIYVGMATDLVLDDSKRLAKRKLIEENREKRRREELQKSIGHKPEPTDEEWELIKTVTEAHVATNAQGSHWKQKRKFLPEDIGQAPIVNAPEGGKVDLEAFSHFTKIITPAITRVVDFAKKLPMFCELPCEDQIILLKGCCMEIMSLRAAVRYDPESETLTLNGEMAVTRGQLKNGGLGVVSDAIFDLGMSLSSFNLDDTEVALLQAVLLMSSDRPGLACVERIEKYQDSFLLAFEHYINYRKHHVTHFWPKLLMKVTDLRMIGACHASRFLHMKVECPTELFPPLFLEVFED
Description: Binding affinity at human thyroid hormone receptor beta-1 expressed in CHOK1 cells

CHO-K1 [5] = details: Homo sapiens
Description: as §2

CHO-K1 [6] = details: Homo sapiens; remark: listed apart in the source
Description: as §1

Rattus norvegicus [7] = assay: Increase in heart rate in po dosed cholesterol-fed rat; assay type: functional
Rattus norvegicus [8] = assay: Decrease in cholesterol in po dosed cholesterol-fed rat; assay type: functional
Rattus norvegicus [9] = assay: Decrease in TSH in po dosed cholesterol-fed rat; assay type: functional
Rattus norvegicus [10] = organism: Rattus norvegicus; assay: Ratio of ED15 for heart rate in cholesterol-fed rat to ED50 for cholesterol level in cholesterol-fed rat; assay type: functional
Rattus norvegicus [11] = organism: Rattus norvegicus; assay: Ratio of ED30 for TSH in cholesterol-fed rat to ED50 for cholesterol level in cholesterol-fed rat; assay type: functional

## CC(C)c1cc(Oc2c(Br)cc(CC(=O)N[C@@H](C(=O)O)C(C)C)cc2Br)ccc1O
Homo sapiens
  Ratio IC50: 8.2
Cells [1]
  EC50: 2.3 nM
Cells [2]
  EC50: 1.2 nM
[3]
  IC50: 9.8 nM
[4]
  IC50: 0.71 nM
CHO-K1 [5]
  Activity: 100%
CHO-K1 [6]
  Activity: 88%

## CC(C)c1cc(Oc2c(Cl)cc(CC(=O)O)cc2Cl)ccc1O
Rattus norvegicus [7]
  ED15: 2900 nmol/kg/day
Rattus norvegicus [8]
  ED50: 72 nmol/kg/day
Rattus norvegicus [9]
  ED30: 32 nmol/kg/day

## CC(C)c1cc(Oc2c(Br)cc(CC(=O)NCC(=O)O)cc2Br)ccc1O
Homo sapiens
  Ratio IC50: 5.9
Cells [1]
  EC50: 103 nM
Cells [2]
  EC50: 42 nM
[3]
  IC50: 26 nM
[4]
  IC50: 2.7 nM
CHO-K1 [5]
  Activity: 85%
CHO-K1 [6]
  Activity: 75%

## CC(C)c1cc(Oc2c(Br)cc(CC(=O)N[C@@H](C(=O)O)c3ccccc3)cc2Br)ccc1O
Homo sapiens
  Ratio IC50: 6
Cells [1]
  EC50: 1.5 nM
Cells [2]
  EC50: 0.73 nM
[3]
  IC50: 5.5 nM
[4]
  IC50: 0.6 nM
CHO-K1 [5]
  Activity: 85%
CHO-K1 [6]
  Activity: 65%

## CC(C)c1cc(Oc2c(Br)cc(CC(=O)N[C@H](C)C(=O)O)cc2Br)ccc1O
Homo sapiens
  Ratio IC50: 8.3
Cells [1]
  EC50: 15 nM
Cells [2]
  EC50: 7.6 nM
[3]
  IC50: 83 nM
[4]
  IC50: 5.9 nM
CHO-K1 [5]
  Activity: 100%
CHO-K1 [6]
  Activity: 83%

## CC(C)c1cc(Oc2c(Br)cc(CC(=O)N[C@H](CC(=O)O)C(=O)O)cc2Br)ccc1O
Homo sapiens
  Ratio IC50: 3.8
Cells [1]
  EC50: 66 nM
Cells [2]
  EC50: 38 nM
[3]
  IC50: 168 nM
[4]
  IC50: 26 nM
CHO-K1 [5]
  Activity: 88%
CHO-K1 [6]
  Activity: 74%

## CC(C)c1cc(Oc2c(Br)cc(CC(=O)N[C@@H](CC(=O)O)C(=O)O)cc2Br)ccc1O
Homo sapiens
  Ratio IC50: 0.9
Cells [1]
  EC50: 1500 nM
Cells [2]
  EC50: 1300 nM
[3]
  IC50: 460 nM
[4]
  IC50: 290 nM
CHO-K1 [5]
  Activity: 84%
CHO-K1 [6]
  Activity: 72%

## Cc1cc(Oc2c(Br)cc(CC(=O)N[C@H](C(=O)O)C(C)C)cc2Br)cc(C(C)C)c1O
Homo sapiens
  Ratio IC50: 0.34
Cells [1]
  EC50: 170 nM
Cells [2]
  EC50: 1100 nM
[3]
  IC50: 1500 nM
[4]
  IC50: 2600 nM
CHO-K1 [5]
  Activity: 27%
CHO-K1 [6]
  Activity: 13%

## CC(C)c1cc(Oc2c(Br)cc(CC(=O)N[C@@H](C)C(=O)O)cc2Br)ccc1O
Homo sapiens
  Ratio IC50: 4.5
Cells [1]
  EC50: 7.2 nM
Cells [2]
  EC50: 2.6 nM
[3]
  IC50: 10 nM
[4]
  IC50: 1.3 nM
CHO-K1 [5]
  Activity: 92%
CHO-K1 [6]
  Activity: 81%

## N[C@@H](Cc1cc(I)c(Oc2ccc(O)c(I)c2)c(I)c1)C(=O)O [LIOTHYRONINE]
Rattus norvegicus [7]
  ED15: 31 nmol/kg/day
Rattus norvegicus [8]
  ED50: 21 nmol/kg/day
Rattus norvegicus [9]
  ED30: 6.7 nmol/kg/day

## CC(C)c1cc(Oc2c(Br)cc(CC(=O)N[C@H](C(=O)O)C(C)C)cc2Br)cc(Cl)c1O
Homo sapiens
  Ratio IC50: 0.29
Cells [1]
  EC50: 65 nM
Cells [2]
  EC50: 210 nM
[3]
  IC50: 670 nM
[4]
  IC50: 1400 nM
CHO-K1 [5]
  Activity: 31%
CHO-K1 [6]
  Activity: 21%

## CC(C)c1cc(Oc2c(Br)cc(CC(=O)N[C@H](C(=O)O)C(C)C)cc2Br)ccc1O
Homo sapiens
  Ratio IC50: 9.4
Rattus norvegicus [7]
  ED15: 1580 nmol/kg/day
Rattus norvegicus [8]
  ED50: 82 nmol/kg/day
Rattus norvegicus [10]
  Ratio: 19
Rattus norvegicus [9]
  ED30: 242 nmol/kg/day
Rattus norvegicus [11]
  Ratio: 3
Cells [1]
  EC50: 1.4 nM
Cells [2]
  EC50: 0.77 nM
[3]
  IC50: 4.3 nM
[4]
  IC50: 0.27 nM
CHO-K1 [5]
  Activity: 92%
CHO-K1 [6]
  Activity: 78%

## CC(C)c1cc(Oc2c(Br)cc(CC(=O)N[C@H](C(=O)O)c3ccccc3)cc2Br)ccc1O
Homo sapiens
  Ratio IC50: 5.7
[3]
  IC50: 7.5 nM
[4]
  IC50: 0.78 nM

## CC(C)c1cc(Oc2c(Br)cc(CC(=O)N[C@H](C(=O)O)C(C)C)cc2Br)cc(F)c1O
Homo sapiens
  Ratio IC50: 4.3
Cells [1]
  EC50: 17 nM
Cells [2]
  EC50: 11 nM
[3]
  IC50: 88 nM
[4]
  IC50: 12 nM
CHO-K1 [5]
  Activity: 88%
CHO-K1 [6]
  Activity: 78%
